This assay addresses SMYD2 (Homo sapiens, UniProt Q9NRG4). Put plainly: scintillation proximity methyltransferase assay, 3H-methyl incorporation into p53 peptide ([…]), single […] dose. It is filed as biochemical. For orientation: SPA uses beads or plates that emit light when radiolabelled molecules are held near them.

As usually defined, the inhibition is the relative decrease from the control value, in per cent. Read a high inhibition as strong suppression.

SMYD2, sequence (Q9NRG4 whole entry): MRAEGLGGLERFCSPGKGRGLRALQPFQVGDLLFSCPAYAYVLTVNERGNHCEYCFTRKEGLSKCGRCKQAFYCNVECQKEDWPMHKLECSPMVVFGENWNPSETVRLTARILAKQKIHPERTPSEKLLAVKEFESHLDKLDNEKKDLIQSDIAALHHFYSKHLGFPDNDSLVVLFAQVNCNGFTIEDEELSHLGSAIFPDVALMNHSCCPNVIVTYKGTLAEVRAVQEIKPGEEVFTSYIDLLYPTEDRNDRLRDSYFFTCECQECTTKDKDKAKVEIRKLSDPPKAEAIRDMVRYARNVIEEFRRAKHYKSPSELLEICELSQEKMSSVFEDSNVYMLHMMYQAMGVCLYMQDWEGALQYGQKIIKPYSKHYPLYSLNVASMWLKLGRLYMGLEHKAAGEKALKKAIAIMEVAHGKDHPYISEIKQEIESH

In turn, `C/C=C(/C=O)[C@@H](CC=O)CC(=O)OCCc1ccc(O)cc1` [OC, S-(-)-oleocanthal] displayed an inhibition at 10 µM of 90.8%.

The record behind these values is article PMC9317016, “Oleocanthal Attenuates Metastatic Castration-Resistant Prostate Cancer Progression and Recurrence by Targeting SMYD2” (Cancers, 2022).
